Assay results from patent US20250092017A1, “2-PIPERIDYL OR 2-PYRAZOLYL SUBSTITUTED PYRIMIDINE COMPOUND SERVING AS EGFR INHIBITOR” (SUZHOU PUHE BIOPHARMA CO., LTD., priority 2022, published 2025).

Assays:
EGFR (wild-type) = EGFR (wild-type) (Homo sapiens, UniProt P00533); assay: MSA (Mobility Shift Assay) kinase activity, EGFR wild type; format: biochemical; details: read-out: EGFR wt/ IC50/nM
Method: (§1) The MSA (Mobility Shift Assay) method was used to detect the effects of small molecule inhibitors on the kinase activity of EGFR wild type and its mutants (EGFR^wt, EGFR-L858R, EGFR-L858R-T790M-C797S, EGFR-L858R-C797S).
(§2) 10 μL of kinase solution at 2.5 times the final concentration was added to the compound wells and positive control Max wells; 10 μL of 1x kinase buffer was added to the negative control Min wells. The mixture was centrifuged at 1000 rpm for 30 seconds, and the reaction plate was shaken to mix the solution well and then incubated at room temperature for 10 minutes. A mixed solution of ATP and kinase substrate at 5/3 times the final concentration was prepared in 1x kinase buffer. 15 μL of a mixed solution of ATP and substrate at 5/3 times the final concentration was added to initiate the reaction. The 384-well plate was centrifuged at 1000 rpm for 30 seconds, and shaken to mix the solution well and then incubated at room temperature for the corresponding time. 30 μL of stop detection solution was added to stop the kinase reaction, and the mixture was centrifuged at 1000 rpm for 30 seconds, and then to mixed well by shaking. The conversion rate was read using Caliper EZ Reader.
(§3) wherein: Conversion %_sample is the conversion rate reading of the sample; Conversion %_min is the mean of the negative control wells, representing the conversion rate reading of the wells without enzyme activity; Conversion %_max is the mean of the positive control wells, representing the conversion rate reading of the wells without compound inhibition.
(§4) The log (inhibitor) vs. response —Variable slope of the analysis software GraphPad Prism 5 was used to fit the dose-effect curve, where the log value of the concentration was used as the X-axis and the percentage inhibition rate was used as the Y-axis, to obtain the IC50 value of each compound on the enzyme activity.
(§5) The calculation formula is Y=Bottom+(Top-Bottom)/(1+10^((Log IC50−X)*Hill Slope))

EGFR (L858R) = EGFR (L858R) (Homo sapiens, UniProt P00533, L858R); assay: MSA (Mobility Shift Assay) kinase activity, EGFR-L858R; format: biochemical
Method: as §1, §2, §3, §4, §5

EGFR (L858R/C797S) = EGFR (L858R/C797S) (Homo sapiens, UniProt P00533, C797S/L858R); assay: MSA (Mobility Shift Assay) kinase activity, EGFR-L858R-C797S; format: biochemical
Method: as §1, §2, §3, §4, §5

EGFR (L858R/T790M/C797S) = EGFR (L858R/T790M/C797S) (Homo sapiens, UniProt P00533, C797S/L858R/T790M); assay: MSA (Mobility Shift Assay) kinase activity, EGFR-L858R-T790M-C797S; format: biochemical
Sequence of EGFR (L858R/T790M/C797S) (P00533 25-1210 T790M/C797S/L858R): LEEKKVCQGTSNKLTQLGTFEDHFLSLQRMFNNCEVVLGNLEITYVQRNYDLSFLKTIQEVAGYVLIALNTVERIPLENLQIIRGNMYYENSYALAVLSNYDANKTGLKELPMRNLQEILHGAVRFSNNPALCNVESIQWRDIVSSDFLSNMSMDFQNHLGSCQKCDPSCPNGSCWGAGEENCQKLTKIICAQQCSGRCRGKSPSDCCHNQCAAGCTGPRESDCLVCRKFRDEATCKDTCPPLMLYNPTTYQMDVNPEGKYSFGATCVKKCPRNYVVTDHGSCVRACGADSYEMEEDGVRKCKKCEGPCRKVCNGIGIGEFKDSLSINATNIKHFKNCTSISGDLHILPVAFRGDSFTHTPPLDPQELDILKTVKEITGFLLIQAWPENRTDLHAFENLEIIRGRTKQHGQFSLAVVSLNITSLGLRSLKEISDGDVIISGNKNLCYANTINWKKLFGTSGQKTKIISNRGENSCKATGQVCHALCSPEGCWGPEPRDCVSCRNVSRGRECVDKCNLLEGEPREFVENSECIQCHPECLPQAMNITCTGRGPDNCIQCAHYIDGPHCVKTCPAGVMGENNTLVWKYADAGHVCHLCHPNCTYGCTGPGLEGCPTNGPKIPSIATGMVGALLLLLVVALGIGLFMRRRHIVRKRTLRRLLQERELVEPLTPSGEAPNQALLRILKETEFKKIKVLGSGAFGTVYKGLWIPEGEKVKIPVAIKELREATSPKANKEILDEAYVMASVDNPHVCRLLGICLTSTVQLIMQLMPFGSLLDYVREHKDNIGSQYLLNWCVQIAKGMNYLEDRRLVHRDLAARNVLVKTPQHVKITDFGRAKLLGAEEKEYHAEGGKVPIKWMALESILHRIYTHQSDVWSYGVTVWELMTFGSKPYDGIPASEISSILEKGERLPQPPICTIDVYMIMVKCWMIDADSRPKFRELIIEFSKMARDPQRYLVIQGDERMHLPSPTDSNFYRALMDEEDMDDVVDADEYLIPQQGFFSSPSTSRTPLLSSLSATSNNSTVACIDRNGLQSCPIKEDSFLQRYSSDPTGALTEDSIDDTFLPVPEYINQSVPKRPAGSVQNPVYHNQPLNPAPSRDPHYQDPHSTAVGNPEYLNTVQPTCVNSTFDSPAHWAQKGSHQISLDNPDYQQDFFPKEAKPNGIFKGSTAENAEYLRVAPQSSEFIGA
Method: as §1, §2, §3, §4, §5

[1] = target: Ba/F3-FL-EGFR-L858R-T790M-C797S (Homo sapiens, UniProt P00533, T790M/C797S/L858R, cells depend on it); assay: CellTiter-Glo proliferation, Ba/F3-FL-EGFR-L858R-T790M-C797S; format: cell-based; details: 72 hours, read-out: Ba/F3-FL-EGFR-L858R-T790M-C797S IC50/nM
Sequence of Ba/F3-FL-EGFR-L858R-T790M-C797S (P00533 whole entry T790M/C797S/L858R): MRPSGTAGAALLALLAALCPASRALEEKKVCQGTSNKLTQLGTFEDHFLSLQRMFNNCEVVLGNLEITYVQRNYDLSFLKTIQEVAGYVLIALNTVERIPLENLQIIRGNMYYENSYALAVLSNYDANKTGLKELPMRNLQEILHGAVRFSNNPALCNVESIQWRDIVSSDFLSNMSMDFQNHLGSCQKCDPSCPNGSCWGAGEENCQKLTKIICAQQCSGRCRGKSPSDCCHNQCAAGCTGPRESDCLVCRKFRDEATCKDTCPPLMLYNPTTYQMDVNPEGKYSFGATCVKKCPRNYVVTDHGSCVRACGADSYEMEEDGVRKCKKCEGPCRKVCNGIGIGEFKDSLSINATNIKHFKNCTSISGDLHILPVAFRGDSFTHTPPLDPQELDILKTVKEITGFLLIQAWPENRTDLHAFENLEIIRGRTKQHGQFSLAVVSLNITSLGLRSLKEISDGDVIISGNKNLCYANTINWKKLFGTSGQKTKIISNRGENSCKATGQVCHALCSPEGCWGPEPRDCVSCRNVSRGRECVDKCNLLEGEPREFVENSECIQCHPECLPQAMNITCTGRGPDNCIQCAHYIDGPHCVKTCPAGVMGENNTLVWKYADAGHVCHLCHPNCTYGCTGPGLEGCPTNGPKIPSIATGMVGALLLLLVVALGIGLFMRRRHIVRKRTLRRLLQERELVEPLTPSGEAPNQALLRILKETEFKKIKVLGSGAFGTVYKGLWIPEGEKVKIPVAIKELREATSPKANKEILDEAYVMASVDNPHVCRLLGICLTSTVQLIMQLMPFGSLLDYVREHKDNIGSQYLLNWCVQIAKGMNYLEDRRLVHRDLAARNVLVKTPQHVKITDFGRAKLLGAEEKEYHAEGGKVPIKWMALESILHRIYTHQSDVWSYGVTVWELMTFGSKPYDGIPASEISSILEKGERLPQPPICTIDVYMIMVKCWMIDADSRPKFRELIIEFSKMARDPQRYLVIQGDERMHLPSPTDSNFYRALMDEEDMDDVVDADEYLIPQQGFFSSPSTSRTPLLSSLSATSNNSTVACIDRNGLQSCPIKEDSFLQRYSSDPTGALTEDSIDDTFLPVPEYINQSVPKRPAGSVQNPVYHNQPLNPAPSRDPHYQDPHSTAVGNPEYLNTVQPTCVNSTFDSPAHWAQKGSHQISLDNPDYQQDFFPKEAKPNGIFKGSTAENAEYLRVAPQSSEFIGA
Method: (§6) Promega CellTiter-Glo reagent was used to detect the effects of small molecule inhibitors on the proliferation of five Ba/F3 cell lines (Ba/F3-FL-EGFR, Ba/F3-FL-EGFR-L858R, Ba/F3-FL-EGFR-L858R-T790M-C797S, Ba/F3-TEL-EGFR-L858R-C797S and Ba/F3-FL-EGFR-del19-C797S).
(§7) The cell lines were cultured in an incubator at 37° C. and 5% CO2. Cells were passaged regularly and cells in the logarithmic phase were used for plating. 95 μL of cell suspension was added to each well of the cell plate, and culture medium without cells (containing 0.1% DMSO) was added to the Min control wells. Substance addition for compound detection cell plate: 5 μL of 20× compound working solution was added to the cell culture plate as shown in the table below. 50 μL of DMSO-cell culture medium mixture was added to the Max control, with the final DMSO concentration of 0.1%. 5 μL of DMSO-cell culture medium mixture was added to the Max control. The final DMSO concentration was 0.1%.
(§8) The compounds to be tested were added as per the table below
(§9) Cell viability was detected by CellTiter-Glo luminescence assay. Data analysis:
(§10) The cell proliferation inhibition rate (Inhibition Rate) data was processed using the following formula: […]
(§11) wherein: RLUDrug represents the relative luminescence unit of the cells with the addition of drug, RLUMin represents the luminescence unit of the culture medium, and RLUMax represents the relative luminescence unit of the cells with the addition of DMSO.
(§12) The inhibition rates corresponding to different concentrations of compounds were calculated in EXCEL, and then the inhibition rate curve was plotted using GraphPad Prism software and related parameters including the maximum and minimum inhibition rates of cells and IC50 values were calculated.

[2] = target: T1, Ba/F3-TEL-EGFR-L858R-C797S (Homo sapiens, UniProt P00533, C797S/L858R, cells depend on it); assay: CellTiter-Glo proliferation, Ba/F3-TEL-EGFR-L858R-C797S; format: cell-based; details: 72 hours, read-out: Ba/F3-TEL-EGFR-L858R-C797S IC50/nM
T1 construct: fused on or other part: N-terminal TEL (ETV6) oligomerising part fused to the EGFR intracellular/kinase part; P41212 (Transcription factor ETV6)
Method: as §6, §7, §8, §9, §10, §11, §12

Ba/F3-FL-EGFR = target: T2, Ba/F3-FL-EGFR (Homo sapiens, UniProt P00533); assay: CellTiter-Glo proliferation, Ba/F3-FL-EGFR; format: cell-based; details: 72 hours, read-out: Ba/F3-FL-EGFR IC50/nM
T2 construct: FL read as full length
T2 sequence (P00533 whole entry, change not shown): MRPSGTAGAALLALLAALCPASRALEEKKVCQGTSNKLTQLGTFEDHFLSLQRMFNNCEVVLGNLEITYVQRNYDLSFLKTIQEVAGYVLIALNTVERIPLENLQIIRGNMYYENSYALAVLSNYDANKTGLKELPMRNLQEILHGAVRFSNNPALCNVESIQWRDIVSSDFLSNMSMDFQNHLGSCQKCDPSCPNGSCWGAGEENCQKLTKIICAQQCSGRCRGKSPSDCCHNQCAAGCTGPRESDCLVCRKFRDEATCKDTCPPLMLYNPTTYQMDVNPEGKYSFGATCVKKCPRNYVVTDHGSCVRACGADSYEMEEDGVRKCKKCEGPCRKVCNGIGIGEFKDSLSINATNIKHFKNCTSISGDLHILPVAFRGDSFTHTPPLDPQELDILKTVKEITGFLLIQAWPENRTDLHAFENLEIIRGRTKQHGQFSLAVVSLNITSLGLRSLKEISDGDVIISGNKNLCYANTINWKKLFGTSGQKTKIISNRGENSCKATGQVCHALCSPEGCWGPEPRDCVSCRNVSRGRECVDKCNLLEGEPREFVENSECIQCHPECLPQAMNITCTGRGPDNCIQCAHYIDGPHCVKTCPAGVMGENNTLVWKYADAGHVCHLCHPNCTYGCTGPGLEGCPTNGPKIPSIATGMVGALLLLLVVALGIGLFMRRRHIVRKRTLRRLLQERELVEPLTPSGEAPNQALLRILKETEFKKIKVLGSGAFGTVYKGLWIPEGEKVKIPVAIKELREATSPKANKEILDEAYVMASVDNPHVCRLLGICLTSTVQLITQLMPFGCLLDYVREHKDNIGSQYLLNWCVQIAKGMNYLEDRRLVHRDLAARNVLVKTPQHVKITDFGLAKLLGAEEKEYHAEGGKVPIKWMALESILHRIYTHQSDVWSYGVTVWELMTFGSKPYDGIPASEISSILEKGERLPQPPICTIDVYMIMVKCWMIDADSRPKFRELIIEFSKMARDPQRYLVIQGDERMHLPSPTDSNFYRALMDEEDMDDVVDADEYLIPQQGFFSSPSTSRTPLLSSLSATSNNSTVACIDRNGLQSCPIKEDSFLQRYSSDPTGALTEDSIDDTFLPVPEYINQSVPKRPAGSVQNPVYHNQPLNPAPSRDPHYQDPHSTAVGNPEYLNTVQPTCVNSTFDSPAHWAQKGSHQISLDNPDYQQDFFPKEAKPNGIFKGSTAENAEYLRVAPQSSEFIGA
Method: as §6, §7, §8, §9, §10, §11, §12

Ba/F3-FL-EGFR-L858R = Ba/F3-FL-EGFR-L858R (Homo sapiens, UniProt P00533, L858R, cells depend on it); assay: CellTiter-Glo proliferation, Ba/F3-FL-EGFR-L858R; format: cell-based; details: 72 hours, read-out: Ba/F3-FL-EGFR-L858R IC50/nM
Method: as §6, §7, §8, §9, §10, §11, §12

[3] = system: Ba/F3-FL-EGFR-del19-C797S; assay: CellTiter-Glo proliferation, Ba/F3-FL-EGFR-del19-C797S; format: cell-based; details: 72 h, proliferation, 72 hours, CellTiter-Glo; read-out: Ba/F3-FL-EGFR-del19-C797S IC50/nM
Method: as §6, §7, §8, §9, §10, §11, §12

Sequence of EGFR (wild-type) (P00533 25-1210): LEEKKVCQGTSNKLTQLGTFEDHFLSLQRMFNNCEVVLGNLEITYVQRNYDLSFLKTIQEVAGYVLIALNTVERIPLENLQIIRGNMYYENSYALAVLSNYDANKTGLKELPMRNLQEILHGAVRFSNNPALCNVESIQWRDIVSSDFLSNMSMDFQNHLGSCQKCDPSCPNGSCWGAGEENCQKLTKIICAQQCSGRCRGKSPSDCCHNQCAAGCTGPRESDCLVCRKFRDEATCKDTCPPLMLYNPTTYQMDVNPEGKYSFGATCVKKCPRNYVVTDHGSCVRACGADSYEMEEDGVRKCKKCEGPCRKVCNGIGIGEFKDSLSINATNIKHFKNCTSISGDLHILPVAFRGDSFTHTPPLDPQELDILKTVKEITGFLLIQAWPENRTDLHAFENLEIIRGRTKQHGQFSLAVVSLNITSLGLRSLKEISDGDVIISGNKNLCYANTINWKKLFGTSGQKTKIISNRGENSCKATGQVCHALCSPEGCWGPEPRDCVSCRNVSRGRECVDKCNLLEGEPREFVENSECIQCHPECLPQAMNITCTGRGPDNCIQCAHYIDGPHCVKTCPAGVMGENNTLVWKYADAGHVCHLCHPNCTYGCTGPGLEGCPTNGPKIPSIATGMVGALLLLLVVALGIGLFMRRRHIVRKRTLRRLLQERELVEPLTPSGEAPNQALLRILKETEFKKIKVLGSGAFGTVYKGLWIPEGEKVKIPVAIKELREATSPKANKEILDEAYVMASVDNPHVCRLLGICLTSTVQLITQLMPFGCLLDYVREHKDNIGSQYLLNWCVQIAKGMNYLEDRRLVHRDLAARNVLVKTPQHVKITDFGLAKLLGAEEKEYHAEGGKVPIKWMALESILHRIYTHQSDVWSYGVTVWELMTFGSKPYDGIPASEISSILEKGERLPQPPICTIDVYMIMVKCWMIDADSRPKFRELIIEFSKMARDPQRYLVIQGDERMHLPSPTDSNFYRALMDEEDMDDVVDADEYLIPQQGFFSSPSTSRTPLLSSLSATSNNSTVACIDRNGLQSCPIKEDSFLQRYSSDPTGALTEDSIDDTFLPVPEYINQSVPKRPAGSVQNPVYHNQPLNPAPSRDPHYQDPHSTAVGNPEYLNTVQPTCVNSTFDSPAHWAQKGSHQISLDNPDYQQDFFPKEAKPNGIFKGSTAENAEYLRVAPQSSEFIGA

Row | SMILES | IC50 (EGFR (wild-type)) [nM] | IC50 (EGFR (L858R)) [nM] | IC50 (EGFR (L858R/C797S)) [nM] | IC50 (EGFR (L858R/T790M/C797S)) [nM] | GI50 [1] [nM] | GI50 [2] [nM] | GI50 (Ba/F3-FL-EGFR) [nM] | GI50 (Ba/F3-FL-EGFR-L858R) [nM] | IC50 [3] [nM]
1 | CC(C)c1ccc(N2CC(CP(C)(C)=O)C2)c2cnc(Nc3ccnc(N4CCC(O)C(F)C4)n3)cc12 (stereo not drawn) [Compound P9] | > 100 | > 100 | > 100 | 3.4 | – | – | – | – | –
2 | CC(C)c1ccc(N2CC3(CC(S(C)(=O)=O)C3)C2)c2cnc(Nc3ccnc(N4CCC(O)C(F)C4)n3)cc12 (stereo not drawn) [Compound P2] | > 100 | 43 | > 100 | 6.7 | – | – | – | – | –
3 | CC(C)c1ccc(N2CC(CS(C)(=O)=O)C2)c2cnc(Nc3ccnc(-c4cnn(S(=O)(=O)C(F)(F)F)c4)n3)cc12 [Compound H8] | > 100 | – | 6.4 | 3.5 | – | – | – | – | –
4 | CC(C)c1ccc(N2CC(C[S+](C)[O-])C2)c2cnc(Nc3ccnc(N4CCC(O)C(F)C4)n3)cc12 (stereo not drawn) [Compound P17] | > 100 | 73.4 | > 100 | 1.6 | – | – | – | – | –
5 | CC(C)c1ccc(N2CC(c3cccnc3)C2)c2cnc(Nc3ccnc(N4CCC(O)C(F)C4)n3)cc12 (stereo not drawn) [Compound P12] | > 100 | > 100 | > 100 | 1.9 | – | – | – | – | –
6 | CC(C)c1ccc(N2CC(c3cscn3)C2)c2cnc(Nc3ccnc(N4CCC(O)C(F)C4)n3)cc12 (stereo not drawn) [Compound P18] | > 100 | – | > 100 | 9.9 | – | – | – | – | –
7 | COC1CCN(c2nccc(Nc3cc4c(cn3)c(N3CC(CS(C)(=O)=O)C3)cc(=O)n4C(C)C)n2)CC1F (stereo not drawn) [Compound P24] | 41.2 | – | 10.4 | 0.13 | 57 | 63 | 3440 | 128 | 283
8 | CC(C)c1ccc(N2C[C@@H](NS(C)(=O)=O)[C@@H]2C)c2cnc(Nc3ccnc(N4CCC(O)C(F)C4)n3)cc12 (stereo partly drawn) [Compound P26] | > 100 | > 100 | > 100 | 30.9 | – | – | – | – | –
9 | CC(C)c1cc(C(F)(F)F)c(N2CC3(CC(CS(C)(=O)=O)C3)C2)c2cnc(Nc3ccnc(N4CCC(O)C(F)C4)n3)cc12 (stereo not drawn) [Compound P5] | > 100 | > 100 | > 100 | 7.1 | – | – | – | – | –
10 | CC(C)c1ccc(N2CC(c3ccc[nH]c3=O)C2)c2cnc(Nc3ccnc(N4CCC(O)C(F)C4)n3)cc12 (stereo not drawn) [Compound P22] | > 100 | > 100 | > 100 | 3.2 | – | – | – | – | –
11 | CNC(=O)CN1CC(c2ccc(C(C)C)c3cc(Nc4ccnc(N5CCC(O)C(F)C5)n4)ncc23)C1 (stereo not drawn) [Compound P15] | > 100 | 98.9 | > 100 | 1.7 | – | – | – | – | –
12 | CC(C)n1c(=O)cc(N2CC(CS(C)(=O)=O)C2)c2cnc(Nc3ccnc(-c4cnn(S(=O)(=O)C5CC5)c4)n3)cc21 [Compound H5] | 10.2 | 4.6 | 1.9 | 0.43 | – | – | – | – | –
13 | CNC(=O)CC1CN(c2ccc(C(C)C)c3cc(Nc4ccnc(N5CCC(O)C(F)C5)n4)ncc23)C1 (stereo not drawn) [Compound P20] | 90.9 | 20.5 | 43.1 | 0.42 | – | – | – | – | –
14 | CC(C)c1ccc(N2CC(CS(C)(=O)=O)C2)c2cnc(Nc3ccnc(-c4cnn(S(=O)(=O)C5CCCCC5)c4)n3)cc12 [Compound H9] | > 100 | – | 12 | 6.3 | – | – | – | – | –
15 | CC(C)n1c(=O)nc(N2CC(CS(C)(=O)=O)C2)c2cnc(Nc3ccnc(N4CCC(O)C(F)C4)n3)cc21 (stereo not drawn) [Compound P19] | > 100 | > 100 | > 100 | 3.4 | – | – | – | – | –
16 | CC(C)c1ccc(N2CC(CS(C)(=O)=O)C2(C)C)c2cnc(Nc3ccnc(N4CCC(O)C(F)C4)n3)cc12 (stereo not drawn) [Compound P8] | > 100 | 67.8 | 83.3 | 0.97 | – | – | – | – | –
17 | COc1cccc(-c2nccc(Nc3cc4c(C(C)C)ccc(N5CC(CS(C)(=O)=O)C5)c4cn3)n2)n1 [Compound H2] | > 100 | > 100 | > 100 | 71.6 | – | – | – | – | –
18 | CC(C)c1ccc(N2CC(NS(=O)(=O)C3CC3)C2)c2cnc(Nc3ccnc(N4CCC(O)C(F)C4)n3)cc12 (stereo not drawn) [Compound P23] | 33.8 | 7.8 | 8.2 | 0.11 | – | – | – | – | –
19 | CC(C)c1ccc(N2CC3(CC(S(C)(=O)=O)C3)C2)c2cnc(Nc3ccnc(N4CCC(O)CC4)n3)cc12 [Compound P4] | > 100 | 43.3 | > 100 | 4.6 | – | – | – | – | –
20 | CC(C)c1cc(C#N)c(N2CC(CS(C)(=O)=O)C2)c2cnc(Nc3ccnc(N4CCC(O)C(F)C4)n3)cc12 (stereo not drawn) [Compound P16] | > 100 | – | 24.1 | 0.28 | – | – | – | – | –
21 | CC(C)n1c(=O)cc(N2CC(CS(C)(=O)=O)C2)c2cnc(Nc3ccnc(N4CCC(O)CC4)n3)cc21 [Compound P13] | > 100 | 31.2 | 34.5 | 1 | – | – | – | – | –
22 | CC(C)c1ccc(N2CC(NS(=O)(=O)c3ccoc3)C2)c2cnc(Nc3ccnc(N4CCC(O)C(F)C4)n3)cc12 (stereo not drawn) [Compound P33] | – | – | – | – | 91 | 115 | 1500 | 218 | 351
23 | CC(C)c1ccc(N2CC(N3CCCS3(=O)=O)C2)c2cnc(Nc3ccnc(N4CCC(O)C(F)C4)n3)cc12 (stereo not drawn) [Compound P34] | – | – | – | – | 78 | 83 | 903 | 206 | 234
24 | CCn1cc(-c2nccc(Nc3cc4c(C(C)C)ccc(N5CC(CS(C)(=O)=O)C5)c4cn3)n2)cn1 [Compound H27] | – | – | – | – | 322 | 21 | > 10000 | 49 | 53
25 | CC(C)c1ccc(N2CC(CS(C)(=O)=O)C2)c2cnc(Nc3ccnc(-c4cnn(S(=O)(=O)C5CCOC5)c4)n3)cc12 (stereo not drawn) [Compound H24] | – | – | – | – | 94 | 12 | 458 | 42 | 20
26 | CC(C)c1ccc(N2CC(N(C)S(C)(=O)=O)C2)c2cnc(Nc3ccnc(-c4cnn(S(=O)(=O)C5CC5)c4)n3)cc12 [Compound H25] | – | – | – | – | 26 | 9.6 | 208 | 14 | 11
27 | COC1CCN(c2nccc(Nc3cc4c(C(C)C)ccc(N5C[C@H](NS(C)(=O)=O)[C@H]5C)c4cn3)n2)CC1F (stereo partly drawn) [Compound P38] | – | – | – | – | 5.4 | 7 | 540 | 15 | 76
